{"source": "patent US10071064B2", "about": "“Tincture for infusing flavonoids and methods of use” (Heart Healthy Spirits, LLC, priority 2014, dated 2018)", "key": {"[1]": {"assay": "Near-saturated concentration of resveratrol in ethanol", "assay_type": "physicochemical", "details": "25° C.", "protocol": "To deliver a 25 mg dose, 0.60 mL of tincture is required regardless of volume of beverage."}, "[2]": {"assay": "Free trans-resveratrol in beverages after adding trans-resveratrol powder, 10 micron filtered (HPLC/(+)ESI-MS/MS and HPLC/UV)", "assay_type": "physicochemical", "source_text": "All beverages receiving the powder are thoroughly mixed. […] A few milliliters of each beverage are transferred to amber-colored sample vials. Samples are stored from each beverage in a refrigerator for analysis."}}, "data": [{"smiles": "Oc1ccc(/C=C/c2cc(O)cc(O)c2)cc1", "note": "[resveratrol, trans-resveratrol]", "values": [{"measurement": "concentration of concentrated (near-saturated) tincture", "setting": "[1]", "result": 42000, "unit": "µg/mL"}]}, {"smiles": "Oc1ccc(/C=C/c2cc(O)cc(O)c2)cc1", "note": "[trans-resveratrol powder, trans-resveratrol]", "values": [{"measurement": "appearance on adding powder to beverage", "setting": "[2]; 25 mg powder in a serving volume, all beverages", "result": "appears to suspend in solution forming a cloudy layer"}, {"measurement": "amount of bioavailable (free) resveratrol", "setting": "[2]; 25 mg powder in alcoholic beverages (red wine, white wine, beer, spirits), 10 micron filtered", "result": "below the minimum detection limits of the devices"}, {"measurement": "measurable concentrations of free trans-resveratrol", "setting": "[2]; 25 mg powder in non-alcoholic beverages (energy drink, sodas, orange juice), 10 micron filtered", "result": "none of the non-alcoholic beverages (energy drink, sodas, and orange juice) receiving the powder show any measurable concentrations of trans-resveratrol"}]}]}
